Converted amounts (≈) assume the structure as drawn.
Key:
Format in all cases: functional
Staphylococcus aureus [1] = test: Antimicrobial activity against methicillin-resistant Staphylococcus aureus Chaoyang clinical isolate after 16 hrs by broth microdilution method
Staphylococcus aureus [2] = test: Antimicrobial activity against Staphylococcus aureus ATCC 6538 after 16 hrs by broth microdilution method; conditions: ATCC 6538, 16 h
Bacillus spizizenii = test: Antimicrobial activity against Bacillus subtilis ATCC 6633 after 16 hrs by broth microdilution method; conditions: ATCC 6633, 16 h
Enterococcus faecalis [3] = test: Antimicrobial activity against vancomycin-susceptible Enterococcus faecalis after 16 hrs by broth microdilution method
Enterococcus faecalis [4] = test: Antimicrobial activity against Enterococcus faecalis VRE-309 after 16 hrs by broth microdilution method; conditions: VRE-309, 16 h
Pseudomonas aeruginosa = test: Antimicrobial activity against Pseudomonas aeruginosa PAO1 after 16 hrs by broth microdilution method; conditions: PAO1, 16 h
Klebsiella pneumoniae = test: Antimicrobial activity against Klebsiella pneumoniae KP-249 clinical isolate after 16 hrs by broth microdilution method; conditions: KP-249, 16 h
Staphylococcus aureus [5] = test: Antimicrobial activity against methicillin-resistant Staphylococcus aureus 309-4 clinical isolate after 16 hrs by broth microdilution method; conditions: 309-4, 16 h
Staphylococcus aureus [6] = test: Antimicrobial activity against methicillin-resistant Staphylococcus aureus 6281 clinical isolate after 16 hrs by broth microdilution method; conditions: Staphylococcus aureus, 6281, 16 h
Staphylococcus aureus [7] = test: Antimicrobial activity against methicillin-resistant Staphylococcus aureus 309-8 clinical isolate after 16 hrs by broth microdilution method; conditions: 309-8, 16 h
Staphylococcus aureus [8] = test: Antimicrobial activity against methicillin-resistant Staphylococcus aureus 6-42 clinical isolate after 16 hrs by broth microdilution method; conditions: 6-42, 16 h
Staphylococcus aureus [9] = test: Antimicrobial activity against methicillin-resistant Staphylococcus aureus 8-21 clinical isolate after 16 hrs by broth microdilution method; conditions: 8-21, 16 h
Staphylococcus aureus [10] = test: Antimicrobial activity against methicillin-resistant Staphylococcus aureus 309-3 clinical isolate after 16 hrs by broth microdilution method; conditions: 309-3, 16 h
Staphylococcus aureus [11] = test: Antimicrobial activity against methicillin-resistant Staphylococcus aureus 309-1 clinical isolate after 16 hrs by broth microdilution method; conditions: 309-1, 16 h
Staphylococcus aureus [12] = test: Antimicrobial activity against methicillin-resistant Staphylococcus aureus 309-7 clinical isolate after 16 hrs by broth microdilution method; conditions: 309-7, 16 h
Staphylococcus aureus [13] = test: Antimicrobial activity against methicillin-resistant Staphylococcus aureus 8-24 clinical isolate after 16 hrs by broth microdilution method; conditions: 8-24, 16 h
Staphylococcus aureus [14] = test: Antimicrobial activity against methicillin-resistant Staphylococcus aureus 309-6 clinical isolate after 16 hrs by broth microdilution method; conditions: 309-6, 16 h

Row | SMILES | MIC (Staphylococcus aureus [1]) [µg/mL] | MIC (Staphylococcus aureus [2]) [µg/mL] | MIC (Bacillus spizizenii) [µg/mL] | MIC (Enterococcus faecalis [3]) [µg/mL] | MIC (Enterococcus faecalis [4]) [µg/mL] | MIC (Pseudomonas aeruginosa) [µg/mL] | MIC (Klebsiella pneumoniae) [µg/mL] | MIC (Staphylococcus aureus [5]) [µg/mL] | MIC (Staphylococcus aureus [6]) [µg/mL] | MIC (Staphylococcus aureus [7]) [µg/mL] | MIC (Staphylococcus aureus [8]) [µg/mL] | MIC (Staphylococcus aureus [9]) [µg/mL] | MIC (Staphylococcus aureus [10]) [µg/mL] | MIC (Staphylococcus aureus [11]) [µg/mL] | MIC (Staphylococcus aureus [12]) [µg/mL] | MIC (Staphylococcus aureus [13]) [µg/mL] | MIC (Staphylococcus aureus [14]) [µg/mL]
1 | COc1cccc(NC(=S)N/N=C2\C(=O)Nc3c(F)cccc32)c1 | 1.56 (≈ 4.53 µM) | 3.12 (≈ 9.06 µM) | 1.56 (≈ 4.53 µM) | > 100 | > 100 | > 100 | > 100 | 1.56 (≈ 4.53 µM) | 3.12 (≈ 9.06 µM) | 1.56 (≈ 4.53 µM) | 1.56 (≈ 4.53 µM) | 1.56 (≈ 4.53 µM) | 1.56 (≈ 4.53 µM) | 1.56 (≈ 4.53 µM) | 1.56 (≈ 4.53 µM) | 3.12 (≈ 9.06 µM) | 3.12 (≈ 9.06 µM)
2 | Cc1ccc(NC(=S)N/N=C2\C(=O)Nc3c(Br)cccc32)cc1 | 0.39 (≈ 1 µM) | 1.56 (≈ 4.01 µM) | ≤ 0.78 | > 100 | > 100 | > 100 | > 100 | 0.78 (≈ 2 µM) | 3.12 (≈ 8.01 µM) | 0.78 (≈ 2 µM) | 0.78 (≈ 2 µM) | 0.78 (≈ 2 µM) | 0.78 (≈ 2 µM) | 0.78 (≈ 2 µM) | 0.78 (≈ 2 µM) | 1.56 (≈ 4.01 µM) | 1.56 (≈ 4.01 µM)
3 | Cc1ccccc1NC(=S)N/N=C1\C(=O)Nc2c(Br)cccc21 | 0.78 (≈ 2 µM) | 1.56 (≈ 4.01 µM) | ≤ 0.78 | 12.5 (≈ 32.1 µM) | 6.25 (≈ 16.1 µM) | > 100 | > 100 | 1.56 (≈ 4.01 µM) | 3.12 (≈ 8.01 µM) | 1.56 (≈ 4.01 µM) | 0.78 (≈ 2 µM) | 1.56 (≈ 4.01 µM) | 1.56 (≈ 4.01 µM) | 1.56 (≈ 4.01 µM) | 0.78 (≈ 2 µM) | 1.56 (≈ 4.01 µM) | 1.56 (≈ 4.01 µM)
4 | COc1cccc(NC(=S)N/N=C2\C(=O)Nc3c(Br)cccc32)c1 | 0.78 (≈ 1.92 µM) | 6.25 (≈ 15.4 µM) | ≤ 0.78 | > 100 | > 100 | > 100 | > 100 | 1.56 (≈ 3.85 µM) | 6.25 (≈ 15.4 µM) | 3.12 (≈ 7.7 µM) | 1.56 (≈ 3.85 µM) | 1.56 (≈ 3.85 µM) | 3.12 (≈ 7.7 µM) | 1.56 (≈ 3.85 µM) | 0.78 (≈ 1.92 µM) | 1.56 (≈ 3.85 µM) | 6.25 (≈ 15.4 µM)
5 | O=C1Nc2c(Cl)cccc2/C1=N/NC(=S)Nc1cccc(Cl)c1 | 0.78 (≈ 2.14 µM) | 1.56 (≈ 4.27 µM) | ≤ 0.78 | 3.12 (≈ 8.54 µM) | 1.56 (≈ 4.27 µM) | > 100 | > 100 | 0.78 (≈ 2.14 µM) | 1.56 (≈ 4.27 µM) | 1.56 (≈ 4.27 µM) | 0.78 (≈ 2.14 µM) | 1.56 (≈ 4.27 µM) | 1.56 (≈ 4.27 µM) | 1.56 (≈ 4.27 µM) | 0.78 (≈ 2.14 µM) | 1.56 (≈ 4.27 µM) | 3.12 (≈ 8.54 µM)
6 | COc1cccc(NC(=S)N/N=C2\C(=O)Nc3c(Cl)cccc32)c1 | 0.78 (≈ 2.16 µM) | 3.12 (≈ 8.65 µM) | ≤ 0.78 | > 100 | > 100 | > 100 | > 100 | 0.78 (≈ 2.16 µM) | 6.25 (≈ 17.3 µM) | 1.56 (≈ 4.32 µM) | 0.78 (≈ 2.16 µM) | 1.56 (≈ 4.32 µM) | 1.56 (≈ 4.32 µM) | 1.56 (≈ 4.32 µM) | 0.78 (≈ 2.16 µM) | 1.56 (≈ 4.32 µM) | 3.12 (≈ 8.65 µM)
7 | O=C1Nc2c(F)cccc2/C1=N/NC(=S)Nc1cccc(Cl)c1 | 0.39 (≈ 1.12 µM) | 0.78 (≈ 2.24 µM) | ≤ 0.78 | 1.56 (≈ 4.47 µM) | 1.56 (≈ 4.47 µM) | > 100 | > 100 | 0.78 (≈ 2.24 µM) | 1.56 (≈ 4.47 µM) | 0.78 (≈ 2.24 µM) | 0.39 (≈ 1.12 µM) | 0.78 (≈ 2.24 µM) | 0.78 (≈ 2.24 µM) | 0.78 (≈ 2.24 µM) | 0.39 (≈ 1.12 µM) | 0.78 (≈ 2.24 µM) | 1.56 (≈ 4.47 µM)
8 | COc1ccc(NC(=S)N/N=C2\C(=O)Nc3c(F)cccc32)cc1 | 1.56 (≈ 4.53 µM) | 3.12 (≈ 9.06 µM) | 1.56 (≈ 4.53 µM) | > 100 | > 100 | > 100 | > 100 | 3.12 (≈ 9.06 µM) | 6.25 (≈ 18.1 µM) | 3.12 (≈ 9.06 µM) | 3.12 (≈ 9.06 µM) | 3.12 (≈ 9.06 µM) | 3.12 (≈ 9.06 µM) | 3.12 (≈ 9.06 µM) | 1.56 (≈ 4.53 µM) | 3.12 (≈ 9.06 µM) | 3.12 (≈ 9.06 µM)
9 | O=C1Nc2c(Cl)cccc2/C1=N/NC(=S)Nc1cccc(F)c1 | 0.39 (≈ 1.12 µM) | 1.56 (≈ 4.47 µM) | ≤ 0.78 | 3.12 (≈ 8.95 µM) | 1.56 (≈ 4.47 µM) | > 100 | > 100 | 0.78 (≈ 2.24 µM) | 3.12 (≈ 8.95 µM) | 1.56 (≈ 4.47 µM) | 0.78 (≈ 2.24 µM) | 1.56 (≈ 4.47 µM) | 1.56 (≈ 4.47 µM) | 1.56 (≈ 4.47 µM) | 0.78 (≈ 2.24 µM) | 1.56 (≈ 4.47 µM) | 1.56 (≈ 4.47 µM)
10 | COc1ccc(NC(=S)N/N=C2\C(=O)Nc3c(Cl)cccc32)cc1 | 1.56 (≈ 4.32 µM) | 6.25 (≈ 17.3 µM) | ≤ 0.78 | > 100 | > 100 | > 100 | > 100 | 1.56 (≈ 4.32 µM) | 6.25 (≈ 17.3 µM) | 3.12 (≈ 8.65 µM) | 1.56 (≈ 4.32 µM) | 3.12 (≈ 8.65 µM) | 3.12 (≈ 8.65 µM) | 3.12 (≈ 8.65 µM) | 1.56 (≈ 4.32 µM) | 3.12 (≈ 8.65 µM) | 6.25 (≈ 17.3 µM)
11 | COc1ccccc1NC(=S)N/N=C1\C(=O)Nc2c(Br)cccc21 | 25 (≈ 61.7 µM) | > 100 | 25 (≈ 61.7 µM) | > 100 | > 100 | > 100 | > 100 | > 100 | > 100 | > 100 | > 100 | > 100 | > 100 | > 100 | > 100 | > 100 | > 100
12 | O=C1Nc2c(Br)cccc2/C1=N/NC(=S)Nc1cccc(F)c1 | 0.39 (≈ 0.992 µM) | 1.56 (≈ 3.97 µM) | ≤ 0.78 | 3.12 (≈ 7.93 µM) | 1.56 (≈ 3.97 µM) | > 100 | > 100 | 0.78 (≈ 1.98 µM) | 1.56 (≈ 3.97 µM) | 0.78 (≈ 1.98 µM) | 0.78 (≈ 1.98 µM) | 0.78 (≈ 1.98 µM) | 0.78 (≈ 1.98 µM) | 0.78 (≈ 1.98 µM) | 0.39 (≈ 0.992 µM) | 0.78 (≈ 1.98 µM) | 1.56 (≈ 3.97 µM)
13 | O=C1Nc2c(Br)cccc2/C1=N/NC(=S)Nc1cccc(Cl)c1 | 0.39 (≈ 0.952 µM) | 1.56 (≈ 3.81 µM) | ≤ 0.78 | 3.12 (≈ 7.62 µM) | 1.56 (≈ 3.81 µM) | > 100 | > 100 | 0.78 (≈ 1.9 µM) | 1.56 (≈ 3.81 µM) | 1.56 (≈ 3.81 µM) | 0.78 (≈ 1.9 µM) | 1.56 (≈ 3.81 µM) | 1.56 (≈ 3.81 µM) | 1.56 (≈ 3.81 µM) | 0.78 (≈ 1.9 µM) | 1.56 (≈ 3.81 µM) | 1.56 (≈ 3.81 µM)
14 | O=C1Nc2c(Br)cccc2/C1=N/NC(=S)Nc1ccc(Br)cc1 | 0.39 (≈ 0.859 µM) | 3.12 (≈ 6.87 µM) | 1.56 (≈ 3.44 µM) | 3.12 (≈ 6.87 µM) | 1.56 (≈ 3.44 µM) | > 100 | > 100 | 0.78 (≈ 1.72 µM) | 3.12 (≈ 6.87 µM) | 1.56 (≈ 3.44 µM) | 0.78 (≈ 1.72 µM) | 1.56 (≈ 3.44 µM) | 1.56 (≈ 3.44 µM) | 1.56 (≈ 3.44 µM) | 0.78 (≈ 1.72 µM) | 1.56 (≈ 3.44 µM) | 1.56 (≈ 3.44 µM)
15 | COc1ccc(NC(=S)N/N=C2\C(=O)Nc3c(Br)cccc32)cc1 | 0.78 (≈ 1.92 µM) | 6.25 (≈ 15.4 µM) | ≤ 0.78 | > 100 | > 100 | > 100 | > 100 | 1.56 (≈ 3.85 µM) | 6.25 (≈ 15.4 µM) | 1.56 (≈ 3.85 µM) | 0.78 (≈ 1.92 µM) | 1.56 (≈ 3.85 µM) | 3.12 (≈ 7.7 µM) | 1.56 (≈ 3.85 µM) | 0.78 (≈ 1.92 µM) | 1.56 (≈ 3.85 µM) | 6.25 (≈ 15.4 µM)
